According to patent publication US20250312499A1, “KISSPEPTIN RECEPTOR (KISS1R) TARGETED THERAPEUTICS AND USES THEREOF” (priority 2024, published 2025):
Numbered stars: 1 amine (or outer) side, 2 acyl side, 3 side chain; on linkers, the order of the positions; unused ones are H or OH. Square brackets hold non-standard residues; d marks the D form. Peptide text beside a SMILES is read from it. * marks the point of attachment. X8 = COCCOCCOCCOCCOCCOCCOCCOCCOCCOCCOCCOCCOCCOCCOCCOCCOCCOCCOCCOCCOCCOCCOCCOCCOCCC(=O)*; DOTA = O=C(O)CN1CCN(CC(=O)O)CCN(CC(=O)*)CCN(CC(=O)O)CC1; Gly(N-(3-F-4-Me-benzyl)) = Cc1ccc(CNCC(=O)*)cc1F; Bpa = N[C@@H](Cc1ccc(C(=O)c2ccccc2)cc1)C(=O)O; X4 = O=C(c1ccc(-c2ccccc2OCCCN[*:1])cc1)[*:2]; Api(1-amidino) = N=C(N)N1CCC(N)(C(=O)O)CC1; HO(CH2CH2O)2CH2CH2CO = O=C(CCOCCOCCO)*; 2Nal = N[C@@H](Cc1ccc2ccccc2c1)C(=O)O; d2Nal = N[C@H](Cc1ccc2ccccc2c1)C(=O)O; X1 = O=C(CN1CCC(N[*:1])CC1)[*:2]; dCya = N[C@H](CS(=O)(=O)O)C(=O)O; 4Pal = N[C@@H](Cc1ccncc1)C(=O)O; d4Pal = N[C@H](Cc1ccncc1)C(=O)O; Octanoyl = CCCCCCCC(=O)*; Api = NC1(C(=O)O)CCNCC1; Ahx = NCCCCCC(=O)O; azaGly = NNC(=O)O; Sar = CNCC(=O)O

The compounds below were run against human kisspeptin receptor (Homo sapiens (Human), UniProt Q969F8) (assay: Human KISS1R binding assay (membrane competition binding)). Settings: 90 min at room temperature; competition with 0.2 nM [125I]-metastin (45-54); Flp-In T-Rex 293 kisspeptin membranes; metal complexes nonradioactive Ga, In, Lu; read-out: hKiSSR Binding Ki (90 min).
human kisspeptin receptor, sequence (Q969F8 whole entry): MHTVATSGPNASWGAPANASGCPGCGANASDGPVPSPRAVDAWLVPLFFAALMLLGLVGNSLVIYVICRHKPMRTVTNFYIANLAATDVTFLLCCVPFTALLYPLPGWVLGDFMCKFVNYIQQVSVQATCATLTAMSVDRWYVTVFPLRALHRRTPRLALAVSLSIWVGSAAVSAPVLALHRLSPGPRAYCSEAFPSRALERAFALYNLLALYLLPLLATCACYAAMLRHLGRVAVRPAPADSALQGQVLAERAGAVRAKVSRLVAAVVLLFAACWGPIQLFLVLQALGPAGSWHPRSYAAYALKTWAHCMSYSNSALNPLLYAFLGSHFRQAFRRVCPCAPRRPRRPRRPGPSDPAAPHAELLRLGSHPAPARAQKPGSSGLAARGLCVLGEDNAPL
Protocol: Crude membrane fractions are prepared from Flp-In T-Rex 293 (Thermo Fisher) cell line expressing the human kisspeptin receptor. The cells are grown to 85-100% confluence on standard tissue culture dishes in Dulbecco's Modified Eagles Medium (DMEM) (Corning) supplemented with 10% FBS (Gemini), 1% penicillin-streptomycin-glutamine (Gibco), 500 μg/mL hygromycin, and 15 μg/mL blastacidin. 48 hrs prior to preparing membranes 10 μg/ml of tetracycline is added to the culture media to induce receptor expression. To prepare membranes, cells are scraped and collected in 1× Dulbecco's phosphate buffered saline (Corning) and then pelleted at 1000 RPMs. The cell pellet is reconstituted in membrane preparation buffer (20 mM HEPES, 6 mM MgCl2 and 1 mM EGTA, protease inhibitor tablets (Pierce), pH 7.4) and placed in a cell disruption vessel (Parr Instrument company) at 1000 PSI for 30 min on ice. The pressurized contents are then released and spun down at 1000 RPMs and the supernatant is collected and further centrifuged at 15,000 RPMs to pellet the membranes. The membrane pellet is resuspended in membrane preparation buffer, snap frozen and stored at −80° C. for later use.
The human kisspeptin membrane binding assay utilizes the following components: radiolabel [^125I]-metastin (45-54) (human) (Perkinhmer), crude Flp-In T-Rex 293 kisspeptin membranes, and competing small molecule and peptide ligands. The assay is initiated by combining in assay buffer (50 mM TrisHCl, 5 mM MgCl2, 2 mM EGTA, 10 mM CaCl2, 0.1% BSA, pH 7.4) a dose response of competing ligand (final concentrations are typically 0-10,000 nM), 5-10 μg of Flp-In T-Rex 293 kisspeptin membranes, and 0.2 n M [^125I]-metastin (45-54) in a 96-well assay plate and allowed to incubate 90 minutes at room temperature. Assay contents are then filtered through unifilter CF/C: microplates (PerkinElmer) pre-soaked with 0.5% BSA and washed with 9×400 μL of cold wash buffer (10 mM HEPES, 500 mM NaCl, 0.1% Tween-20, pH7.4). Assay plates are read using a Microbeta^2 (PerkinElmer) and Ki values for compounds are determined using a GraphPad Prism 9.3 non-linear regression analysis.

Structure (SMILES) | Ki [µM]
Cc1ccc(CNCC(=O)N2CCC(NC(=O)[C@H](CC(C)C)NC(=O)NNC(=O)c3ccc(-c4ccccc4OCCCNC(=O)CN4CCC(NC(=O)CN5CCN(CC(=O)O)CCN(CC(=O)O)CCN(CC(=O)O)CC5)CC4)cc3)(C(=O)N[C@@H](Cc3c[nH]c4ccccc34)C(N)=O)CC2)cc1F [Compound 217] ({DOTA}-[X1][X4][azaGly]L[Api](Gly(N-(3-F-4-Me-benzyl)))W-NH2) | < 0.01
CNCC(=O)N1CCC(NC(=O)[C@H](CC(C)C)NC(=O)NNC(=O)[C@H](Cc2ccccc2)NC(=O)[C@@H](NC(=O)[C@H](CC(N)=O)NC(=O)[C@@H](Cc2ccc3ccccc3c2)NC(=O)[C@H](N)Cc2ccc(O)cc2)[C@@H](C)O)(C(=O)N[C@@H](Cc2ccc(O)cc2)C(N)=O)CC1 [Compound 407] (H-[dY][d2Nal]NTF[azaGly]L[Api](Sar)Y-NH2) | < 0.01
Cc1ccc(CNCC(=O)N2CCC(NC(=O)[C@H](CC(C)C)NC(=O)NNC(=O)[C@H](Cc3ccccc3)NC(=O)[C@@H](NC(=O)[C@H](CC(N)=O)NC(=O)[C@@H](Cc3c[nH]c4ccccc34)NC(=O)[C@H](Cc3ccc(O)cc3)NC(=O)CNC(=O)CN3CCN(CC(=O)O)CCN(CC(=O)O)CCN(CC(=O)O)CC3)[C@@H](C)O)(C(=O)N[C@@H](Cc3c[nH]c4ccccc34)C(N)=O)CC2)cc1F [Compound 151] ({DOTA}-GY[dW]NTF[azaGly]L[Api](Gly(N-(3-F-4-Me-benzyl)))W-NH2) | < 0.01
Cc1ccc(CNCC(=O)N2CCC(NC(=O)[C@H](CC(C)C)NC(=O)NNC(=O)[C@H](Cc3ccccc3)NC(=O)CCCCCNC(=O)[C@H](Cc3ccc(O)cc3)NC(=O)CNC(=O)CN3CCN(CC(=O)O)CCN(CC(=O)O)CCN(CC(=O)O)CC3)(C(=O)N[C@@H](Cc3c[nH]c4ccccc34)C(N)=O)CC2)cc1F [Compound 305] ({DOTA}-GY[Ahx]F[azaGly]L[Api](Gly(N-(3-F-4-Me-benzyl)))W-NH2) | < 0.01
CC(C)C[C@H](NC(=O)NNC(=O)[C@H](Cc1ccccc1)NC(=O)[C@@H](NC(=O)[C@H](CC(N)=O)NC(=O)[C@H](Cc1ccc2ccccc2c1)NC(=O)[C@@H](Cc1ccc(O)cc1)NC(=O)CCCCCNC(=O)CN1CCN(CC(=O)O)CCN(CC(=O)O)CCN(CC(=O)O)CC1)[C@@H](C)O)C(=O)NC1(C(=O)N[C@@H](Cc2ccc(O)cc2)C(N)=O)CCN(C(=N)N)CC1 [Compound 276] ({DOTA-Ahx}-[dY][2Nal]NTF[azaGly]L[Api(1-amidino)]Y-NH2) | < 0.01
Cc1ccc(CNCC(=O)N2CCC(NC(=O)[C@H](CC(C)C)NC(=O)NNC(=O)[C@H](Cc3ccccc3)NC(=O)[C@@H](NC(=O)[C@H](CC(N)=O)NC(=O)[C@@H](Cc3c[nH]c4ccccc34)NC(=O)[C@@H](Cc3ccc(O)cc3)NC(=O)CCCCCNC(=O)CN3CCN(CC(=O)O)CCN(CC(=O)O)CCN(CC(=O)O)CC3)[C@@H](C)O)(C(=O)N[C@@H](Cc3ccc(O)cc3)C(N)=O)CC2)cc1F [Compound 366] ({DOTA-Ahx}-[dY][dW]NTF[azaGly]L[Api](Gly(N-(3-F-4-Me-benzyl)))Y-NH2) | < 0.01
Cc1ccc(CNCC(=O)N2CCC(NC(=O)[C@H](CC(C)C)N3CC(NC(=O)[C@H](Cc4ccccc4)NC(=O)CCCCCNC(=O)CN4CCN(CC(=O)O)CCN(CC(=O)O)CCN(CC(=O)O)CC4)C3)(C(=O)N[C@@H](Cc3c[nH]c4ccccc34)C(N)=O)CC2)cc1F [Compound 139] | 0.01 to 0.1
Cc1ccc(CNCC(=O)N2CCC(NC(=O)c3cc(OCCNC(=O)[C@H](Cc4ccccc4)NC(=O)CN4CCC(NC(=O)CN5CCN(CC(=O)O)CCN(CC(=O)O)CCN(CC(=O)O)CC5)CC4)cc(-c4ccccc4)c3)(C(=O)N[C@@H](Cc3c[nH]c4ccccc34)C(N)=O)CC2)cc1F [Compound 215] | > 0.1
Cc1ccc(CNCC(=O)N2CCC(NC(=O)[C@H](CC(C)C)NC(=O)NNC(=O)[C@H](Cc3ccccc3)NC(=O)[C@@H](NC(=O)[C@H](CC(N)=O)NC(=O)[C@@H](Cc3ccncc3)NC(=O)CCCCCNC(=O)CN3CCN(CC(=O)O)CCN(CC(=O)O)CCN(CC(=O)O)CC3)[C@@H](C)O)(C(=O)N[C@@H](Cc3ccncc3)C(N)=O)CC2)cc1F [Compound 295] ({DOTA-Ahx}-[d4Pal]NTF[azaGly]L[Api](Gly(N-(3-F-4-Me-benzyl)))[4Pal]-NH2) | < 0.01
CCCCCCCC(=O)N[C@H](Cc1ccc(O)cc1)C(=O)N[C@@H](CCCCNC(=O)CN1CCN(CC(=O)O)CCN(CC(=O)O)CCN(CC(=O)O)CC1)C(=O)N[C@@H](CC(N)=O)C(=O)N[C@H](C(=O)N[C@@H](Cc1ccccc1)C(=O)NNC(=O)N[C@@H](CC(C)C)C(=O)NC1(C(=O)N[C@@H](Cc2c[nH]c3ccccc23)C(N)=O)CCN(C(=O)CNCc2ccc(C)c(F)c2)CC1)[C@@H](C)O [Compound 181] (Octanoyl-[dY]K(DOTA)NTF[azaGly]L[Api](Gly(N-(3-F-4-Me-benzyl)))W-NH2) | < 0.01
COCCOCCOCCOCCOCCOCCOCCOCCOCCOCCOCCOCCOCCOCCOCCOCCOCCOCCOCCOCCOCCOCCOCCOCCOCCC(=O)N[C@H](Cc1ccc(O)cc1)C(=O)N[C@@H](CCCCNC(=O)CN1CCN(CC(=O)O)CCN(CC(=O)O)CCN(CC(=O)O)CC1)C(=O)N[C@@H](CC(N)=O)C(=O)N[C@H](C(=O)N[C@@H](Cc1ccccc1)C(=O)NNC(=O)N[C@@H](CC(C)C)C(=O)NC1(C(=O)N[C@@H](Cc2c[nH]c3ccccc23)C(N)=O)CCN(C(=N)N)CC1)[C@@H](C)O [Compound 182] (X8-[dY]K(DOTA)NTF[azaGly]L[Api(1-amidino)]W-NH2) | < 0.01
CNCC(=O)N1CCC(NC(=O)[C@H](CC(C)C)NC(=O)NNC(=O)[C@H](Cc2ccccc2)NC(=O)[C@@H](NC(=O)[C@H](CC(N)=O)NC(=O)[C@H](Cc2ccc(C(=O)c3ccccc3)cc2)NC(=O)[C@@H](Cc2ccc(O)cc2)NC(=O)CCCCCNC(=O)CN2CCN(CC(=O)O)CCN(CC(=O)O)CCN(CC(=O)O)CC2)[C@@H](C)O)(C(=O)N[C@@H](Cc2c[nH]c3ccccc23)C(N)=O)CC1 [Compound 346] ({DOTA-Ahx}-[dY][Bpa]NTF[azaGly]L[Api](Sar)W-NH2) | < 0.01
Cc1ccc(CNCC(=O)N2CCC(NC(=O)[C@H](CC(C)C)NC(=O)NNC(=O)[C@H](Cc3ccccc3)NC(=O)[C@@H](NC(=O)[C@H](CC(N)=O)NC(=O)[C@@H](Cc3c[nH]c4ccccc34)NC(=O)CCCCCNC(=O)CN3CCN(CC(=O)O)CCN(CC(=O)O)CCN(CC(=O)O)CC3)[C@@H](C)O)(C(=O)N[C@@H](Cc3c[nH]c4ccccc34)C(N)=O)CC2)cc1F [Compound 30] ({DOTA-Ahx}-[dW]NTF[azaGly]L[Api](Gly(N-(3-F-4-Me-benzyl)))W-NH2) | < 0.01
Cc1ccc(CNCC(=O)N2CCC(NC(=O)[C@H](CC(C)C)NC(=O)NNC(=O)[C@H](Cc3ccccc3)NC(=O)[C@@H](NC(=O)[C@H](CC(N)=O)NC(=O)[C@@H](Cc3c[nH]c4ccccc34)NC(=O)[C@@H](Cc3ccc(O)cc3)NC(=O)CCCCCNC(=O)[C@@H](CS(=O)(=O)O)NC(=O)CN3CCN(CC(=O)O)CCN(CC(=O)O)CCN(CC(=O)O)CC3)[C@@H](C)O)(C(=O)N[C@@H](Cc3c[nH]c4ccccc34)C(N)=O)CC2)cc1F [Compound 115] ({DOTA}-[dCya][Ahx][dY][dW]NTF[azaGly]L[Api](Gly(N-(3-F-4-Me-benzyl)))W-NH2) | < 0.01
Cc1ccc(CNCC(=O)N2CCC(NC(=O)[C@H](CC(C)C)NC(=O)NNC(=O)[C@H](Cc3ccccc3)NC(=O)[C@@H](NC(=O)[C@H](CCCCNC(=O)CN3CCN(CC(=O)O)CCN(CC(=O)O)CCN(CC(=O)O)CC3)NC(=O)CCOCCOCCO)[C@@H](C)O)(C(=O)N[C@@H](Cc3ccncc3)C(N)=O)CC2)cc1F [Compound 251] ({HO(CH2CH2O)2CH2CH2CO}-K(DOTA)TF[azaGly]L[Api](Gly(N-(3-F-4-Me-benzyl)))[4Pal]-NH2) | > 0.1
